Data published in paper PMC10709440, “High-throughput ligand profile characterization in novel cell lines expressing seven heterologous insect olfactory receptors for the detection of volatile plant biomarkers” (Scientific Reports, 2023).
Where two headings read alike, the source gives them in different places.

Tests used:
Drosophila OR10a = biological target: T1, Drosophila OR10a (Drosophila melanogaster, UniProt Q9VYZ1); experiment: Calcium ion fluorescence (GCaMP6) assay, OR10a stable HEK293 cell line; format: cell-based
T1 construct: expressed in transfected cells
T1 sequence (Q9VYZ1 1-406): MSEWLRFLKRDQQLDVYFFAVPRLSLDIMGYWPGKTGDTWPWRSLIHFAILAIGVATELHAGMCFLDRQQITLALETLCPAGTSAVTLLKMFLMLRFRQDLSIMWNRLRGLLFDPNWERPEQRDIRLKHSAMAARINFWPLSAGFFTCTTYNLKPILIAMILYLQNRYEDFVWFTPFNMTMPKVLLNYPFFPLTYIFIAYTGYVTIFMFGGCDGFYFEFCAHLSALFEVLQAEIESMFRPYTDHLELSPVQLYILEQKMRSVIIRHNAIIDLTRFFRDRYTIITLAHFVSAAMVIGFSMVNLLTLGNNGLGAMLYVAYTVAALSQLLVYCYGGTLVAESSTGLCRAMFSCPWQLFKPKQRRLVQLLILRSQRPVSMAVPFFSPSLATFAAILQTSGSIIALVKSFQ
T1 sequence (Q9VNB5 1-486 partner): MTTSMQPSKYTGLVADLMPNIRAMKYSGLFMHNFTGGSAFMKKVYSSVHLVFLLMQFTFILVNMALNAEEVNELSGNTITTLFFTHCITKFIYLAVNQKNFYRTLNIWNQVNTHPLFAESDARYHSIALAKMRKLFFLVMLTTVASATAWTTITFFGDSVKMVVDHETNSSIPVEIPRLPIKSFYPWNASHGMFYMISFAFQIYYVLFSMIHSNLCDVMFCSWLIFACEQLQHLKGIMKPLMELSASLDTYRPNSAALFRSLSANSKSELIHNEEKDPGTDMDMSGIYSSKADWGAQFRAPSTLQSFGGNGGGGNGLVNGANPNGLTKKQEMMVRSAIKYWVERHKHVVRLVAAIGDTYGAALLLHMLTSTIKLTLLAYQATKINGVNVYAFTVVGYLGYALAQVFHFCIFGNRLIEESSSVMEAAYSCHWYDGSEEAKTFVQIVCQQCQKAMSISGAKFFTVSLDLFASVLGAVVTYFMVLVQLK
Procedure: (§1) These VUAA1 normalized ∆F values were used to compare the different receptors and ligands.
(§2) The concentration-dependent effect of the reference ligands on their cognate cell lines was examined in more detail. Twelve different ligand concentrations were measured on each cell line in an overall 0.01 μM to 100 μM concentration range with 5 repetitions with three technical replicates each time.
(§3) Twelve thousand to 18,000 cells were plated into each well of a black wall, transparent bottom 384-well microplate (Greiner) 48 h or 72 h before the measurements and were simultaneously treated with 1 μg/mL doxycycline. […] The plate has 24 columns, thus we could record responses in up to eight different cell lines in each plate. On the day of the experiment, the growth medium was replaced with 20 µL assay buffer/well (140 mM NaCl, 5 mM KCl, 2 mM CaCl2, 1 mM MgCl2, 5 mM HEPES-Na, 20 mM glucose, pH 7.3, 340 mOsm). […] Baseline fluorescence (F0) was recorded for 5 s, after which 7 µL VOC buffer (140 mM NaCl, 5 mM KCl, 2 mM CaCl2, 1 mM MgCl2, 5 mM HEPES-Na, 31 mM glucose, 0.1% DMSO, pH 7.3, 340 mOsm) was injected into each well in one row and the fluorescence response was recorded for an additional 30 s, at a rate of one read/sec. VOC solutions (VOC buffer with 4× concentration of the final measured VOC concentration, 9 µL/well was injected) were measured on the same wells in a second round with the same protocol. Each individual concentration of a specific VOC sample was recorded in three wells for the same cell line on the same microplate. The raw data were exported in xls file format, F0 and FMAX values, and the fluorescence intensity changes (∆F) were calculated in Excel (Microsoft) (Supplementary file Data summary.xlsx) using the following equation: ΔF=FMAX-F0/F0 (see also Fig. 1C). On each plate, we recorded the response of each cell line to 50 µM VUAA1. The average of these ∆F values of each cell line were used to calculate the VUAA1-normalized values for the rest of the plate, by dividing VOC response ∆F values by the average VUAA1 response ∆F value of the corresponding OR cell line. Each VOC-OR combination was measured three times as technical replicates. […] The average of these replicates were used as one ∆F and VUAA1-normalized ∆F in the following analysis.
(§4) In the next rows we tested the reference VOCs (or other VOCs known to activate the corresponding cell lines), in order to test if all cell lines are responsive. The remaining rows were used to test VOCs with unknown effect.
(§5) The recorded FMAX, F0, ∆F, VUAA1-normalized ∆F values, as well as the OR name, the name of the tested sample, and the final concentration for each well were copied into supplementary file Data summary.xlsx, that was used to summarize all the plates recorded. Here, the averages of the measurements were calculated for each receptor-VOC-concentration combination.

Drosophila OR47a = biological target: T2, Drosophila OR47a (Drosophila melanogaster, UniProt P81921); experiment: Calcium ion fluorescence (GCaMP6) assay, OR47a stable HEK293 cell line; format: cell-based; details: for activation at 1 µM / activation at 10 µM / activation at 100 µM: HEK293, read-out: OR47a response (VUAA1-normalized response); for Average response: mean of biological replicates
T2 construct: expressed in transfected cells
T2 sequence (P81921 1-385): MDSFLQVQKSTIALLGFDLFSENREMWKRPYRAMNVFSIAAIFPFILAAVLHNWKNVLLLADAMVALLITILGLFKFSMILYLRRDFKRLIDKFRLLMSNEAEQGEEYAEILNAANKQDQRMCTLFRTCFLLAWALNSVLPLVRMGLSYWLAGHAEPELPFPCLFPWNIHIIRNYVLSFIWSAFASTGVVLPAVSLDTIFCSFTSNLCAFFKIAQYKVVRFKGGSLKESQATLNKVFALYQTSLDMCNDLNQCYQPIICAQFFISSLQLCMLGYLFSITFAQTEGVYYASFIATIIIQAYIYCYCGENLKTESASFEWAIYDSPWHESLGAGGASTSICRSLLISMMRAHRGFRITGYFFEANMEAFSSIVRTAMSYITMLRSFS
T2 sequence (Q9VNB5 1-486 partner): T1 sequence (Q9VNB5 1-486 partner)
Procedure: as §1, §2, §3, §4, §5

[1] = HEK293, read-out: OR10a Average response (VUAA1-normalized), 1 μM VOC, 50 μM VUAA1 = 1, responses not exceeding 0.05 considered 0
[2] = HEK293, read-out: OR10a Average response (VUAA1-normalized), 10 μM VOC, 50 μM VUAA1 = 1, responses not exceeding 0.05 considered 0
[3] = HEK293, read-out: OR10a Average response (VUAA1-normalized), 100 μM VOC, 50 μM VUAA1 = 1, responses not exceeding 0.05 considered 0
[4] = HEK293, read-out: OR10a response (VUAA1-normalized response), VOC concentration 1 μM
[5] = HEK293, read-out: OR10a response (VUAA1-normalized response), VOC concentration 10 μM
[6] = HEK293, read-out: OR10a response (VUAA1-normalized response), VOC concentration 100 μM
[7] = ligand concentration 1 (unit not given), threshold 0.05, below shown as 0
[8] = ligand concentration 10 (unit not given), threshold 0.05, below shown as 0
[9] = ligand concentration 100 (unit not given), threshold 0.05, below shown as 0
[10] = OR47a cell line, odorant cc. 1 µM
[11] = OR47a cell line, odorant cc. 10 µM
[12] = OR47a cell line, odorant cc. 100 µM
[13] = 1 μM VOC, 50 μM VUAA1 = 1, responses not exceeding 0.05 considered 0
[14] = 10 μM VOC, 50 μM VUAA1 = 1, responses not exceeding 0.05 considered 0
[15] = 100 μM VOC, 50 μM VUAA1 = 1, responses not exceeding 0.05 considered 0
[16] = concentration 10, normalized fluorescence change, values below 0.05 threshold given as 0
[17] = concentration 1, normalized fluorescence change, values below 0.05 threshold given as 0
[18] = concentration 100, normalized fluorescence change, values below 0.05 threshold given as 0

Compound | activation at 1 µM (Drosophila OR10a; [1]) | activation at 10 µM (Drosophila OR10a; [2]) | activation at 100 µM (Drosophila OR10a; [3]) | activation at 1 µM (Drosophila OR10a; [4]) | activation at 10 µM (Drosophila OR10a; [5]) | activation at 100 µM (Drosophila OR10a; [6]) | DF norm AVERAGE OR10a (Drosophila OR10a; [7]) | DF norm AVERAGE OR10a (Drosophila OR10a; [8]) | DF norm AVERAGE OR10a (Drosophila OR10a; [9]) | activation at 1 µM (Drosophila OR47a) | activation at 10 µM (Drosophila OR47a) | activation at 100 µM (Drosophila OR47a) | Average response (Drosophila OR47a; [10]) | Average response (Drosophila OR47a; [11]) | Average response (Drosophila OR47a; [12]) | DF norm AVERAGE OR47a (Drosophila OR47a; [7]) | DF norm AVERAGE OR47a (Drosophila OR47a; [8]) | DF norm AVERAGE OR47a (Drosophila OR47a; [17]) | DF norm AVERAGE OR47a (Drosophila OR47a; [16]) | DF norm AVERAGE OR47a (Drosophila OR47a; [18]) | also measured
C=C1CCC2CC1C2(C)C (stereo not drawn) [beta-pinene] | 2.77% | 4% | 9% | 0% | 0% | 9% | 0 | 0 | 0.0885 | 0% | 0% | 0% | 0.00 | 0.00 | 0.00 | 0 | 0 |  |  |  | DF norm AVERAGE OR47a (Drosophila OR47a; [9]): 0
(-)-alpha-cedrene |  |  |  |  |  |  |  |  |  |  |  |  | 0.00 | 0.00 | 0.02 |  |  | 0 | 0 | 0 | DF norm AVERAGE OR10a (Drosophila OR10a): 0; OR10a Average response (VUAA1-normalized) (Drosophila OR10a; [13]): 0.02; OR10a Average response (VUAA1-normalized) (Drosophila OR10a; [14]): 0.06; OR10a Average response (VUAA1-normalized) (Drosophila OR10a; [15]): 0.00; OR10a response (VUAA1-normalized response) (Drosophila OR10a; VOC concentration 1 μM): 0.00; OR10a response (VUAA1-normalized response) (Drosophila OR10a; VOC concentration 10 μM): 0.06; OR10a response (VUAA1-normalized response) (Drosophila OR10a; VOC concentration 100 μM): 0.00; DF norm AVERAGE OR10a (Drosophila OR10a; [16]): 0.05923; OR47a response (VUAA1-normalized response) (Drosophila OR47a; VOC concentration 1 μM): 0.00; OR47a response (VUAA1-normalized response) (Drosophila OR47a; VOC concentration 10 μM): 0.00; OR47a response (VUAA1-normalized response) (Drosophila OR47a; VOC concentration 100 μM): 0.00
Cc1ccc(C)cc1 [p-xylene] | 0% | 0% | 6.41% |  |  |  | 0 | 0 | 0.06412 |  |  |  | 0.00 | 0.00 | 0.0271 | 0 | 0 |  |  |  | OR10a response (VUAA1-normalized) at 1 μM (Drosophila OR10a; OR10a cell line, VOC concentration 1 μM): 0.00; OR10a response (VUAA1-normalized) at 10 μM (Drosophila OR10a; OR10a cell line, VOC concentration 10 μM): 0.00; OR10a response (VUAA1-normalized) at 100 μM (Drosophila OR10a; OR10a cell line, VOC concentration 100 μM): 0.0641; OR47a response (VUAA1-normalized) at 1 μM (Drosophila OR47a; OR47a cell line, VOC concentration 1 μM): 0.00; OR47a response (VUAA1-normalized) at 10 μM (Drosophila OR47a; OR47a cell line, VOC concentration 10 μM): 0.00; OR47a response (VUAA1-normalized) at 100 μM (Drosophila OR47a; OR47a cell line, VOC concentration 100 μM): 0.00; DF norm AVERAGE OR47a (Drosophila OR47a; [9]): 0
CCCCCC(C)O (stereo not drawn) [2-heptanol] |  |  |  | 0% | 7.54% | 0% |  |  |  | 0% | 6% | 0% | 0.00 | 0.06 | 0.00 |  |  | 0 | 0.05999 | 0 | activation at 1 µM (Drosophila OR10a; HEK293, 1 μM VOC, 50 μM VUAA1 = 1, responses not exceeding 0.05 considered 0, read-out: OR10a Average response (VUAA1-normalized)): 3.76%; activation at 10 µM (Drosophila OR10a; HEK293, 10 μM VOC, 50 μM VUAA1 = 1, responses not exceeding 0.05 considered 0, read-out: OR10a Average response (VUAA1-normalized)): 7.54%; activation at 100 µM (Drosophila OR10a; HEK293, 100 μM VOC, 50 μM VUAA1 = 1, responses not exceeding 0.05 considered 0, read-out: OR10a Average response (VUAA1-normalized)): 0%
C=C1[C@H]2CC[C@@H]3[C@H]2C(C)(C)CCC[C@]13C [(+)-longifolene] |  |  |  |  |  |  |  |  |  |  |  |  | 0.00 | 0.00 | 0.0238 |  |  | 0 | 0 | 0 | OR10a Average response (VUAA1-normalized) (Drosophila OR10a; [13]): 0.08; OR10a Average response (VUAA1-normalized) (Drosophila OR10a; [14]): 0.0537; OR10a Average response (VUAA1-normalized) (Drosophila OR10a; [15]): 0.028; OR10a response (VUAA1-normalized response) (Drosophila OR10a; VOC concentration 1 μM): 0.08; OR10a response (VUAA1-normalized response) (Drosophila OR10a; VOC concentration 10 μM): 0.0537; OR10a response (VUAA1-normalized response) (Drosophila OR10a; VOC concentration 100 μM): 0.00; DF norm AVERAGE OR10a (Drosophila OR10a; [16]): 0.05372; OR47a response (VUAA1-normalized response) (Drosophila OR47a; VOC concentration 1 μM): 0.00; OR47a response (VUAA1-normalized response) (Drosophila OR47a; VOC concentration 10 μM): 0.00; OR47a response (VUAA1-normalized response) (Drosophila OR47a; VOC concentration 100 μM): 0.00
